Test system: HeLa cells
Assay: Cytosolic entry of NF-labelled peptides by flow cytometry
Assay type: cell-based
Settings: 5 μM, 2 h, inversion of configuration of Arg-9 or Nal-4 of peptide 4

| Substance | fold higher cytosolic entry activity relative to peptide 4 [fold] |
| --- | --- |
| cyclo(AAFϕRpPRRFAAAQ)-miniPEG-K(NF) [compound 8] | 2.3 |
| cyclo(AAFΦRpPRrFAAAQ)-miniPEG-K(NF) [compound 7] | 1.7 |

From PMC7577319 (Bioorganic & medicinal chemistry, 2020)
